Assay results reported in ChEMBL document CHEMBL1124625, “Flavones. 2. Synthesis and structure-activity relationship of flavodilol and its analogues, a novel class of antihypertensive agents with catecholamine depleting properties” (J Med Chem, 1989).
Active and inactive are the calls of the source. The calls are words filed in the database; no cut-off is given here.

Key:
[1] = system: Rattus norvegicus; assay: % decrease in hypothalamus dopamine in anesthetized spontaneously hypertensive rats(SHR) at 5 hours after administration of 75 mg/kg dose perorally; type: functional; details: route oral
[2] = system: Rattus norvegicus; assay: % decrease in systolic blood pressure (SBP) in anesthetized spontaneously hypertensive rats(SHR) after administration of 75 mg/kg dose perorally; details: route oral
[3] = system: Rattus norvegicus; assay: Systolic blood pressure (SBP) in anesthetized spontaneously hypertensive rats (SHR) before administration of 75 mg/kg dose perorally.; type: functional; design: unit: mmHg; details: route oral
[4] = system: Rattus norvegicus; assay: Systolic blood pressure (SBP) in anesthetized spontaneously hypertensive rats(SHR) before administration of 17 mg/kg dose, perorally; type: functional; details: route oral
[5] = system: Rattus norvegicus; assay: Systolic blood pressure (SBP) in anesthetized spontaneously hypertensive rats(SHR) before administration of 35 mg/kg dose perorally; type: functional; details: route oral
[6] = system: Rattus norvegicus; assay: % decrease in heart 5-HT in anesthetized spontaneously hypertensive rats(SHR) at 5 hours after administration of 8 mg/kg dose perorally; type: functional; details: route oral
[7] = system: Rattus norvegicus; assay: % decrease in hypothalamus norepinephrine in anesthetized spontaneously hypertensive rats(SHR) at 5 hours after administration of 4 mg/kg dose perorally; type: functional; details: route oral
[8] = system: Rattus norvegicus; assay: % decrease in heart norepinephrine in anesthetized spontaneously hypertensive rats(SHR) at 5 hours after administration of 4 mg/kg dose perorally; type: functional; details: route oral
[9] = system: Rattus norvegicus; assay: % decrease in heart 5-HT in anesthetized spontaneously hypertensive rats(SHR) at 5 hours after administration of 75 mg/kg dose perorally; value significantly different was control; type: functional; details: route oral
[10] = system: Rattus norvegicus; assay: % decrease in heart norepinephrine in anesthetized spontaneously hypertensive rats(SHR) at 5 hours after administration of 17.5 mg/kg dose perorally; type: functional; details: route oral
[11] = system: Rattus norvegicus; assay: % decrease in heart norepinephrine in anesthetized spontaneously hypertensive rats(SHR) at 5 hours after administration of 8 mg/kg dose perorally; type: functional; details: route oral
[12] = system: Rattus norvegicus; assay: % decrease in heart 5-HT in anesthetized spontaneously hypertensive rats(SHR) at 5 hours after administration of 4 mg/kg dose perorally; type: functional; details: route oral
[13] = system: Rattus norvegicus; assay: % decrease in hypothalamus norepinephrine in anesthetized spontaneously hypertensive rats(SHR) at 5 hours after administration of 17.5 mg/kg dose perorally; type: functional; details: route oral
[14] = system: Rattus norvegicus; assay: Systolic blood pressure (SBP) in anesthetized spontaneously hypertensive rats(SHR) at 7.5 hours after administration of 75 mg/kg dose perorally; details: route oral
[15] = system: Rattus norvegicus; assay: % decrease in heart 5-HT in anesthetized spontaneously hypertensive rats(SHR) at 5 hours after administration of 35 mg/kg dose perorally; value significantly different was control; type: functional; details: route oral
[16] = system: Rattus norvegicus; assay: % decrease in hypothalamus dopamine in anesthetized spontaneously hypertensive rats(SHR) at 5 hours after administration of 17.5 mg/kg dose perorally; type: functional; details: route oral
[17] = system: Rattus norvegicus; assay: % decrease in heart 5-HT in anesthetized spontaneously hypertensive rats(SHR) at 5 hours after administration of 17.5 mg/kg dose perorally; value significantly different was control; type: functional; details: route oral
[18] = system: Rattus norvegicus; assay: % decrease in heart norepinephrine in anesthetized spontaneously hypertensive rats(SHR) at 5 hours after administration of 35 mg/kg dose perorally; type: functional; details: route oral
[19] = system: Rattus norvegicus; assay: % decrease in hypothalamus norepinephrine in anesthetized spontaneously hypertensive rats(SHR) at 5 hours after administration of 35 mg/kg dose perorally; type: functional; details: route oral
[20] = system: Rattus norvegicus; assay: Systolic blood pressure (SBP) in anesthetized spontaneously hypertensive rats(SHR) at 7.5 hours after administration of 35 mg/kg dose perorally; type: functional; details: route oral
[21] = system: Rattus norvegicus; assay: % decrease in systolic blood pressure (SBP) in anesthetized spontaneously hypertensive rats(SHR) after administration of 8 mg/kg dose perorally; details: route oral
[22] = system: Rattus norvegicus; assay: % decrease in hypothalamus norepinephrine in anesthetized spontaneously hypertensive rats(SHR) at 5 hours after administration of 8 mg/kg dose perorally; type: functional; details: route oral
[23] = system: Rattus norvegicus; assay: % decrease in heart norepinephrine in anesthetized spontaneously hypertensive rats(SHR) at 5 hours after administration of 75 mg/kg dose perorally; type: functional; details: route oral
[24] = system: Rattus norvegicus; assay: % decrease in hypothalamus dopamine in anesthetized spontaneously hypertensive rats(SHR) at 5 hours after administration of 8 mg/kg dose perorally; type: functional; details: route oral
[25] = system: Rattus norvegicus; assay: % decrease in hypothalamus dopamine in anesthetized spontaneously hypertensive rats(SHR) at 5 hours after administration of 4 mg/kg dose perorally; type: functional; details: route oral
[26] = system: Rattus norvegicus; assay: % decrease in systolic blood pressure (SBP) in anesthetized spontaneously hypertensive rats(SHR) after administration of 17.5 mg/kg dose perorally; data statistically significant; details: route oral
[27] = system: Rattus norvegicus; assay: Systolic blood pressure (SBP) in anesthetized spontaneously hypertensive rats(SHR) at 7.5 hours after administration of 17 mg/kg dose, perorally; type: functional; details: route oral
[28] = system: Rattus norvegicus; assay: % decrease in hypothalamus DA in anesthetized spontaneously hypertensive rats(SHR) at 5 hours after administration of 35 mg/kg dose perorally; details: route oral
[29] = system: Rattus norvegicus; assay: % decrease in systolic blood pressure (SBP) in anesthetized spontaneously hypertensive rats(SHR) after administration of 4 mg/kg dose perorally; details: route oral
[30] = system: Rattus norvegicus; assay: % decrease in hypothalamus norepinephrine in anesthetized spontaneously hypertensive rats(SHR) at 5 hours after administration of 75 mg/kg dose perorally; type: functional; details: route oral
[31] = molecular target: Adrenergic receptor beta (Rattus norvegicus, UniProt P18090+P10608+P26255)
Description: Inhibition constant from beta adrenergic receptor binding assay

[32] = system: Rattus norvegicus; assay: % decrease in brain norepinephrine in anesthetized spontaneously hypertensive rats(SHR) at 24 hours after administration of 35 mg/kg dose perorally; type: functional; details: route oral
[33] = system: Rattus norvegicus; assay: Systolic blood pressure (SBP) in anesthetized spontaneously hypertensive rats(SHR) at 7.5 hours after administration of 75 mg/kg dose perorally; type: functional; details: route oral
[34] = system: Rattus norvegicus; assay: Systolic blood pressure (SBP) in anesthetized spontaneously hypertensive rats(SHR) at 7.5 hours after administration of 17 mg/kg dose, perorally; percentage falls in systolic blood pressure were not statistically signific ant; type: functional, organism-based; design: dose 17 mg/kg; details: Artery
[35] = system: Rattus norvegicus; assay: % decrease in heart norepinephrine in anesthetized spontaneously hypertensive rats(SHR) at 24 hours after administration of 35 mg/kg dose perorally; value significantly different was control; type: functional; details: route oral
[36] = system: Rattus norvegicus; assay: % decrease in adrenal epinephrine in anesthetized spontaneously hypertensive rats(SHR) at 3 hours after administration of 150 mg/kg dose perorally; type: functional; details: route oral
[37] = system: Rattus norvegicus; assay: % decrease in adrenal epinephrine in anesthetized spontaneously hypertensive rats(SHR) at 24 hours after administration of 35 mg/kg dose perorally; type: functional; details: route oral
[38] = system: Rattus norvegicus; assay: % decrease in adrenal epinephrine in anesthetized spontaneously hypertensive rats(SHR) at 24 hours after administration of 150 mg/kg dose perorally; type: functional; details: route oral
[39] = system: Rattus norvegicus; assay: % decrease in adrenal epinephrine in anesthetized spontaneously hypertensive rats(SHR) at 24 hours after administration of 75 mg/kg dose perorally; type: functional; details: route oral
[40] = system: Rattus norvegicus; assay: % decrease in brain norepinephrine in anesthetized spontaneously hypertensive rats(SHR) at 7 hours after administration of 150 mg/kg dose perorally; type: functional; details: route oral
[41] = system: Rattus norvegicus; assay: % decrease in adrenal epinephrine in anesthetized spontaneously hypertensive rats(SHR) at 7 hours after administration of 150 mg/kg dose perorally; type: functional; details: route oral
[42] = system: Rattus norvegicus; assay: % decrease in brain norepinephrine in anesthetized spontaneously hypertensive rats(SHR) at 3 hours after administration of 150 mg/kg dose perorally; type: functional; details: route oral
[43] = system: Rattus norvegicus; assay: Systolic blood pressure (SBP) in anesthetized spontaneously hypertensive rats(SHR) before administration of 17 mg/kg dose perorally; type: functional; details: route oral
[44] = system: Rattus norvegicus; assay: % decrease in brain norepinephrine in anesthetized spontaneously hypertensive rats(SHR) at 24 hours after administration of 150 mg/kg dose perorally; type: functional; details: route oral
[45] = system: Rattus norvegicus; assay: % decrease in brain norepinephrine in anesthetized spontaneously hypertensive rats(SHR) at 1 hours after administration of 150 mg/kg dose perorally; type: functional; details: route oral
[46] = species: Cavia porcellus; assay: Inhibition of the isoproterenol response at a dose of 1 x 10e -4M in guinea pig; slight inhibition was found; type: functional, organism-based
[47] = system: Rattus norvegicus; assay: % decrease in heart norepinephrine in anesthetized spontaneously hypertensive rats(SHR) at 3 hours after administration of 150 mg/kg dose perorally; type: functional; details: route oral
[48] = system: Rattus norvegicus; assay: % decrease in heart norepinephrine in anesthetized spontaneously hypertensive rats(SHR) at 24 hours after administration of 75 mg/kg dose perorally; type: functional; details: route oral
[49] = system: Rattus norvegicus; assay: % decrease in heart norepinephrine in anesthetized spontaneously hypertensive rats(SHR) at 1 hours after administration of 150 mg/kg dose perorally; type: functional; details: route oral
[50] = system: Rattus norvegicus; assay: % decrease in brain norepinephrine in anesthetized spontaneously hypertensive rats(SHR) at 24 hours after administration of 75 mg/kg dose perorally; type: functional; details: route oral
[51] = system: Rattus norvegicus; assay: % decrease in heart norepinephrine in anesthetized spontaneously hypertensive rats(SHR) at 7 hours after administration of 150 mg/kg dose perorally;; type: functional; details: route oral
[52] = system: Rattus norvegicus; assay: % decrease in systolic blood pressure (SBP) in anesthetized spontaneously hypertensive rats(SHR) after administration of 150 mg/kg dose perorally; details: route oral
[53] = system: Rattus norvegicus; assay: % decrease in adrenal epinephrine in anesthetized spontaneously hypertensive rats(SHR) at 1 hours after administration of 150 mg/kg dose perorally; type: functional; details: route oral
[54] = system: Rattus norvegicus; assay: % decrease in heart norepinephrine in anesthetized spontaneously hypertensive rats(SHR) at 24 hours after administration of 150 mg/kg dose perorally; type: functional; details: route oral

## CCCNCC(O)COc1ccc2c(=O)cc(-c3ccccc3)oc2c1 (stereo not drawn) [FLAVODILOL]
[1]
  Decrease: 38%
[2]
  % decrease SBP: 31%
[3]
  Systolic blood pressure: 203
[4]
  Systolic blood pressure: 199
[5]
  Systolic blood pressure: 196
[6]
  Decrease: 11%
[7]
  Decrease in hypothalamus norepinephrine: 2%
[8]
  Decrease in heart norepinephrine: 21%
[9]
  Decrease: 63%
[10]
  Decrease in heart norepinephrine: 79%
[11]
  Decrease in heart norepinephrine: 38%
[12]
  Decrease: -10%
[13]
  Decrease in hypothalamus norepinephrine: 6%
[14]
  Decrease in Systolic blood pressure: 32%
[15]
  Decrease: 61%
[16]
  Decrease: 31%
[17]
  Decrease: 49%
[18]
  Decrease in heart norepinephrine: 89%
[19]
  Decrease in hypothalamus norepinephrine: 19%
[20]
  Decrease in Systolic blood pressure: 27%
[21]
  % decrease SBP: 3%
[22]
  Decrease in hypothalamus norepinephrine: 0%
[23]
  Decrease in heart norepinephrine: 94%
[24]
  Decrease: -6%
[25]
  Decrease: 4%
[26]
  % decrease SBP: 6%
[27]
  Decrease in Systolic blood pressure: 15%
[28]
  % decrease hypothalamus DA: 37%
[29]
  % decrease SBP: 7%
[30]
  Decrease in hypothalamus norepinephrine: 15%
[31]
  Ki: 0.004 µM

## CC(C)NCC(O)COc1ccc2c(=O)cc(-c3ccccc3)oc2c1 (stereo not drawn)
[32]
  Decrease: -4%
[2]
  % decrease SBP: 16%
[33]
  Decrease in Systolic blood pressure: 27%
[3]
  Systolic blood pressure: 208
[34]
  Decrease in Systolic blood pressure: inactive
[35]
  Decrease: 57%
[36]
  Decrease: 4%
[37]
  Decrease: 17%
[38]
  Decrease: 39%
[39]
  Decrease: 23%
[20]
  Decrease in Systolic blood pressure: 21%
[40]
  Decrease: 10%
[41]
  Decrease: 16%
[42]
  Decrease: 2%
[43]
  Systolic blood pressure: 203
[44]
  Decrease: 14%
[45]
  Decrease: 0%
[46]
  Activity: Weak activity
[47]
  Decrease: 71%
[48]
  Decrease: 100%
[49]
  Decrease: 40%
[50]
  Decrease: 2%
[51]
  Decrease: 100%
[52]
  % decrease SBP: 33%
[53]
  Decrease: 10%
[54]
  Decrease: 100%
[31]
  Ki: 12 µM
